Data from patent US20130035256A1, “Chimeric Polypeptides Useful in Proximal and Dynamic High-Throughput Screening Methods” (ADDEX PHARMA SA, priority 2010, published 2013).
Structures can show the parent of a compound that is named as a salt. Marks after values point to notes of the source that are not given here.

Legend:
M4R = biological target: T1, M4R (Homo sapiens, UniProt P08173); test: Calcium-based assay, calcium flux in cells co-expressing recombinant M4R and modified Gαq; type: cell-based; conditions: for Calcium-based assay % stim: compound tested alone; for Calcium-based assay % enh: in presence of EC20 value of Ach; for Calcium-based assay % inh: in presence of EC80 of Ach
T1 construct: expressed in transfected cells
T1 sequence (P08173 1-479): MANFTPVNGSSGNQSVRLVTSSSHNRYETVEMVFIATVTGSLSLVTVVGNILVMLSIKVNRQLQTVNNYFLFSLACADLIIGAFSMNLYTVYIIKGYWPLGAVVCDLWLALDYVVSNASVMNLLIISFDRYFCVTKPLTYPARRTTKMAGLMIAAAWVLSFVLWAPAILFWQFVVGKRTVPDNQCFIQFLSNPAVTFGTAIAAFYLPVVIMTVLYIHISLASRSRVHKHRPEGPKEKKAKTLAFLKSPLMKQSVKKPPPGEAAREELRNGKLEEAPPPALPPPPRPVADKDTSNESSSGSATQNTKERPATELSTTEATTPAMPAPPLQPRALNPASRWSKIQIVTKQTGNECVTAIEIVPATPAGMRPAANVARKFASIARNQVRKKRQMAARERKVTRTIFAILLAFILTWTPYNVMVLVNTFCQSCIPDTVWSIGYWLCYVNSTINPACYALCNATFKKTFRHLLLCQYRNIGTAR
Procedure: (§1) The assay of the present invention was compared with a state of the art calcium based assay. […] In calcium-based assay, a calcium flux is measured in cells co-expressing recombinant M4R and modified Gαq. In the assay in accordance with the present invention, BRET in measured in cells co-expressing a chimeric M4R according to RGLG-2 (construct and cell-line from FIG. 2C, Table 6) and FP-Gγ9 (as described in FIG. 10A). The data represent mean values and they are normalized to the maximal effect of the orthosteric agonist after the subtraction of the basal values.

chimeric M4R (RGLG-2) = biological target: T2, chimeric M4R (RGLG-2) (Homo sapiens, UniProt P08173); test: BRET assay of the invention, cells co-expressing chimeric M4R (RGLG-2) and FP-Gγ9; type: cell-based; conditions: for Invention assay % stim: compound tested alone; for Invention assay % enh: in presence of EC20 value of Ach; for Invention assay % inh: in presence of EC80 of Ach; for activation of the chimeric M4R (BRET): increasing concentrations of ligand
T2 construct: ID; NOs; expressed in transfected cells
T2 sequence (P08173 with tags, fused parts or gaps): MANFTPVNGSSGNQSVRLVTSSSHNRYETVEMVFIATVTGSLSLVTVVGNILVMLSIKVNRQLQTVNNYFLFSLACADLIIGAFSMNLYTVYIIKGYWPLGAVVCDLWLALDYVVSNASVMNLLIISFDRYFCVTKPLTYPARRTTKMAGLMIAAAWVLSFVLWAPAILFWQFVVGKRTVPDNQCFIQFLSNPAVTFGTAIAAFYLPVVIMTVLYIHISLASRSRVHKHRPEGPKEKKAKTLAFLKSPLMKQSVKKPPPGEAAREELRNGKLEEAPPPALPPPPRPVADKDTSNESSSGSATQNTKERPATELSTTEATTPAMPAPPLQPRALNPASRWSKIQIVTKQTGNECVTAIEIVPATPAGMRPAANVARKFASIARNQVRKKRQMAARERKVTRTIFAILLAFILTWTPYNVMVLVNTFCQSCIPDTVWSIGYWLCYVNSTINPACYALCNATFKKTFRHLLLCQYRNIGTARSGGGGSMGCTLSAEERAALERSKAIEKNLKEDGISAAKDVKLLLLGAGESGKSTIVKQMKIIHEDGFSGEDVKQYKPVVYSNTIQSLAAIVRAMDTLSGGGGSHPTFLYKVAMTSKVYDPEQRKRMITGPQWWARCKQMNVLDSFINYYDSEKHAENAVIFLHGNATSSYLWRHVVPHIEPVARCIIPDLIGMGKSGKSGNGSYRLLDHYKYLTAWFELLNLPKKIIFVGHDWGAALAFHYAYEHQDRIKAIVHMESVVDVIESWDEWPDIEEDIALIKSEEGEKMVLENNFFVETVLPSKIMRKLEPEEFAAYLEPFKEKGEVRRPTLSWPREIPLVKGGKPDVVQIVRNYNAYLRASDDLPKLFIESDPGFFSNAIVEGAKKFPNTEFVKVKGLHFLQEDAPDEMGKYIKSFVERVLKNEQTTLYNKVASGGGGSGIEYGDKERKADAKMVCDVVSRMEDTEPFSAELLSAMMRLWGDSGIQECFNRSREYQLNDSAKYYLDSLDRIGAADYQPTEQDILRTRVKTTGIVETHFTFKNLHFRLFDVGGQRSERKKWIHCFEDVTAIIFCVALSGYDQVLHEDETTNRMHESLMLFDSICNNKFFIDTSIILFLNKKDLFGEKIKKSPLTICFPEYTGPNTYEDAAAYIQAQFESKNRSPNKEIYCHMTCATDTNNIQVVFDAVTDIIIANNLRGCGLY
Procedure: The same cells as described for FIG. 10 A were used. […] The decrease of the signal below baseline in the PTX-treated condition confirms a constitutive activity that has been described for the M4R. […]
A typical experiment has the following sequence.
as §1

[1] = activity @ 30uM or 30 ug/ml, normalized to maximal effect of the orthosteric agonist

Molecule | Calcium-based assay % stim (M4R; [1]) [%] | Calcium-based assay % enh (M4R; [1]) [%] | Calcium-based assay % inh (M4R; [1]) [%] | Invention assay % stim (chimeric M4R (RGLG-2); [1]) [%] | Invention assay % enh (chimeric M4R (RGLG-2); [1]) [%] | Invention assay % inh (chimeric M4R (RGLG-2); [1]) [%] | activation of the chimeric M4R (BRET) (chimeric M4R (RGLG-2)) | Calcium-based assay % enh (M4R; * @ 3uM or 3 ug/ml) | Calcium-based assay % stim (M4R; * @ 3uM or 3 ug/ml) | Invention assay % stim (chimeric M4R (RGLG-2); * @ 3uM or 3 ug/ml) | Invention assay % enh (chimeric M4R (RGLG-2); * @ 3uM or 3 ug/ml) | Invention assay % inh (chimeric M4R (RGLG-2); * @ 3uM or 3 ug/ml)
COC(=O)C1=C(C)NC(C)=C(C(=O)OC)C1c1ccccc1[N+](=O)[O-] [Nifedipine] | −0.9 | 8.7 | 34.8 | −15.8 | 5.3 | 23.2 |  |  |  |  |  | 
CC[C@H]1/C=C/C=C/C[C@@H](C)[C@H](O)[C@@](C)(O)C(=O)[C@@H](C)[C@H](O)[C@@H](C)C(=O)[C@@H](C)[C@H](O)[C@@H](C)/C=C/C(=O)O[C@@H]2[C@H](C)[C@H](CC1)O[C@]1(CC[C@H](C)[C@H](C[C@@H](C)O)O1)[C@H]2C [Oligomycin] | 3.3 | 63.8 | −21.6 | 1.8 | 3.3 | 8.5 |  |  |  |  |  | 
Thapsigargin | 129.5 | 49.8 | 11.6 | −0.7 | −4.2 | 10.8 |  |  |  |  |  | 
COc1nc2sc(C(=O)NC3CC3)c(N)c2c(C)c1Cl [LY2033298] |  |  |  |  |  |  | activation |  |  |  |  | 
COC(=O)C1=C(C)NC(C)=C([N+](=O)[O-])[C@H]1c1ccccc1C(F)(F)F [(S)-(−)-Bay K 8644] | 16.1 | 59.8 | −65.0 | −8.0 | −3.6 | 14.6 |  |  |  |  |  | 
CCOC(=O)C1=C(C)NC(=S)NC1c1cccc(O)c1 (stereo not shown) [Monastrol] | 4.1 | 44.7 | −16.7 | −3.0 | −0.1 | 7.0 |  |  |  |  |  | 
C=C[C@@]1(C)CC(=O)[C@]2(O)[C@@]3(C)[C@@H](O)CCC(C)(C)[C@@H]3[C@H](O)[C@H](OC(C)=O)[C@@]2(C)O1 [FSK] | 57.8 | 58.3 | −22.4 | −5.0 | −3.6 | 11.8 |  |  |  |  |  | 
O=C(N/N=C/c1ccc(O)c(O)c1)c1cc2ccccc2cc1O [Dynamin Inhibitor I] | 13.4 | 92.3 | −73.7 | −8.0 | 23.9 | −3.5 |  |  |  |  |  | 
O=C1Nc2ccc(I)cc2/C1=C/c1cc(Br)c(O)c(Br)c1 [GW 5074] | 879.7 | 151.4 | −23.8 | −6.8 | 2.8 | 13.5 |  |  |  |  |  | 
COC(=O)c1c(C)[nH]c(C)c1C(=O)c1ccccc1Cc1ccccc1 [FPL 64176] | 48.9 | 59.7 | −66.6 | −8.4 | 7.5 | 10.0 |  |  |  |  |  | 
C[C@H](CCC(=O)O)C[C@H](C)C[C@H](C)C(=O)/C=C(\O)[C@H](C)C[C@H](C)C/C=C/[C@@H](C)[C@@H](O)[C@@H](C)[C@@H](O)C[C@@H]1CC[C@@](C)([C@H]2CC[C@@](C)([C@@H](C)O)O2)O1 [Ionomycin calcium salt] | 488.7 |  | 112.2 | −11.8 | −2.5 | 14.6 |  | 58.8* % |  |  |  | 
AG 10 | 2.3 | 3.8 | 41.6 | −13.0 | −0.1 | 8.6 |  |  |  |  |  | 
CN([C@@H](Cc1ccc(OS(=O)(=O)c2cccc3cnccc23)cc1)C(=O)N1CCN(c2ccccc2)CC1)S(=O)(=O)c1cccc2cnccc12 [KN-62] |  |  |  |  |  |  |  | 39.4* % | 8.1* % | −0.8* % | −1.2* % | 15.8* %
COC(=O)C1=C(C)NC(C)=C([N+](=O)[O-])[C@@H]1c1ccccc1C(F)(F)F [(R)-(+)-Bay K 8644] | 26.8 | 77.8 | −66.5 | −8.2 | 4.7 | 11.4 |  |  |  |  |  | 
O=C1OC2(c3ccccc31)c1ccc(O)c(O)c1Oc1c2ccc(O)c1O [Gallein] | 11.7 | 42.9 | −22.2 | 3.9 | 5.1 | 5.3 |  |  |  |  |  | 
CCN1C(=O)C=CC1=O [N-Ethylmaleimide] | 3.8 | 0.2 | 96.9 | −3.4 | 12.4 | 16.5 |  |  |  |  |  | 
CCCCCC(O)/C=C/C=O (stereo not shown) [4-Hydroxynonenal] | 1.4 | −7.3 | 118.9 | −14.9 | −3.5 | 29.9 |  |  |  |  |  | 
Cc1ccc2c(c1)C(=O)C1(O)CCN(c3ccccc3)C1=N2 (racemic) [(±)-Blebbistatin] | 130.0 | 115.1 | −46.9 | −7.2 | −2.4 | 13.1 |  |  |  |  |  | 
C[C@H]1CCC/C=C/[C@@H]2C[C@H](O)C[C@H]2[C@H](O)/C=C/C(=O)O1 [Brefeldin A] | 5.2 | 32.3 | −19.5 | −2.5 | −1.9 | 12.7 |  |  |  |  |  | 
Nc1ncnc2c1ncn2[C@@H]1O[C@H](COP(=O)(O)OP(=O)(O)OP(=O)(O)O)[C@@H](O)[C@H]1O [ATP] |  |  |  |  |  |  | lack of activation |  |  |  |  | 
CN(C)CCCn1cc(C2=C(c3c[nH]c4ccccc34)C(=O)NC2=O)c2ccccc21 [GF 109203X] | 154.3 | 84.3 | −10.0 | 2.2 | 7.4 | 29.5 |  |  |  |  |  | 
Cn1c2c(c(=O)n(C)c1=O)C(c1cccc(Br)c1)C1=C(N2)c2ccccc2C1=O (stereo not shown) [BPIPP] | 18.1 | 62.6 | −29.2 | 1.3 | 8.3 | 1.5 |  |  |  |  |  | 
